In this experiment the target is FGFR3 enzyme (Homo sapiens (Human), UniProt P22607). Description: FGFR Enzymatic Assay (peptide phosphorylation, FRET), FGFR3. Format: biochemical. Conditions: IC50 ratio showing FGFR3 selectivity; pre-incubated for 4 hours. The method, then: The inhibitor potency of the exemplified compounds was measured in an enzyme assay that measures peptide phosphorylation using FRET measurements to detect product formation. Inhibitors were serially diluted in DMSO and a volume of 0.5 μL was transferred to the wells of a 384-well plate.
Sequence of FGFR3 enzyme (P22607 23-806): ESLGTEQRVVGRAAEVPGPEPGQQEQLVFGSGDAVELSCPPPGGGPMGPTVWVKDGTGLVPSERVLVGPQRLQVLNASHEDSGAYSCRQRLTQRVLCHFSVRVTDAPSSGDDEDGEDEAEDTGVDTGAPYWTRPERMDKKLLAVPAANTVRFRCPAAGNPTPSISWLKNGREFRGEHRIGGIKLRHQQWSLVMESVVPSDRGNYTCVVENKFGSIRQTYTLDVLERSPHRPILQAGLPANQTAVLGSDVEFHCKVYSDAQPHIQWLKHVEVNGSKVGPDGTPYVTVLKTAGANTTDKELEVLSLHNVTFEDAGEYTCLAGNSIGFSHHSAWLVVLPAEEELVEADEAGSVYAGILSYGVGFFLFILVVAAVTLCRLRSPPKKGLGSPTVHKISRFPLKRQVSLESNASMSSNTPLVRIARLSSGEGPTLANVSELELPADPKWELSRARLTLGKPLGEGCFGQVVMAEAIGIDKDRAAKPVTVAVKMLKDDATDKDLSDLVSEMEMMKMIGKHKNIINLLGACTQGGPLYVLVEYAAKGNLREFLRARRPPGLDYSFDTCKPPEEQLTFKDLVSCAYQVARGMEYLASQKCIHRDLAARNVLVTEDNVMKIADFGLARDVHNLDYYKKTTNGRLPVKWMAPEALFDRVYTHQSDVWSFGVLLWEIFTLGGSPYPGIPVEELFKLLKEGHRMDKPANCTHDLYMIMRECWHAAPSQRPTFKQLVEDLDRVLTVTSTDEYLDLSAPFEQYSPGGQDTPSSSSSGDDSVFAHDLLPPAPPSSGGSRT
GraphPad prism3 was used to analyze the data.
Regarding `CCN1C(=O)N(c2c(F)c(OC)cc(OC)c2F)Cc2cnc(-c3ccc(C(N)=O)nc3)cc21` [Example 184, 5-(3-(2,6-difluoro-3,5-dimethoxyphenyl)-1-ethyl-2-oxo-1,2,3,4-tetrahydropyrido[4,3-d]pyrimidin-7-yl)picolinamide], the FGFR1/FGFR3 is listed as over 5 and the FGFR4/FGFR3 was over 5.
Take `COc1cc(OC)c(F)c(N2Cc3cnc(-c4cn(C)nc4C)cc3N(c3cncnc3)C2=O)c1F` [Example 61, 3-(2,6-difluoro-3,5-dimethoxyphenyl)-7-(1,3-dimethyl-1H-pyrazol-4-yl)-1-(pyrimidin-5-yl)-3,4-dihydropyrido[4,3-d]pyrimidin-2(1H)-one]: the FGFR1/FGFR3 is given as over 10 and the FGFR4/FGFR3 is on record as over 5.
The like results for `COc1cc(OC)c(F)c(N2Cc3cnc(-c4cn(C)nc4C)cc3N(Cc3cnn(CC#N)c3)C2=O)c1F` [Example 125, 2-(4-((3-(2,6-difluoro-3,5-dimethoxyphenyl)-7-(1,3-dimethyl-1H-pyrazol-4-yl)-2-oxo-3,4-dihydropyrido[4,3-d]pyrimidin-1(2H)-yl)methyl)-1H-pyrazol-1-yl)acetonitrile] were, in that order, over 5 and over 5.
The like results for `COc1cc(OC)c(F)c(N2Cc3cnc(-c4cn(C)nc4C)cc3N(c3ccncn3)C2=O)c1F` [Example 45, 3-(2,6-difluoro-3,5-dimethoxyphenyl)-7-(1,3-dimethyl-1H-pyrazol-4-yl)-1-pyrimidin-4-yl-3,4-dihydropyrido[4,3-d]pyrimidin-2(1H)-one] were, in that order, over 10 and over 10.
The like results for `COc1cc(OC)c(F)c(N2Cc3cnc(-c4cn(C)nc4C)cc3N(Cc3cnccn3)C2=O)c1F` [Example 85, 3-(2,6-difluoro-3,5-dimethoxyphenyl)-7-(1,3-dimethyl-1H-pyrazol-4-yl)-1-(pyrazin-2-ylmethyl)-3,4-dihydropyrido[4,3-d]pyrimidin-2(1H)-one] were, in that order, over 5 and over 10.
On to `COc1cc(OC)c(F)c(N2Cc3cnc(-c4cnn(C5(CC#N)CN(C(C)=O)C5)c4)cc3C3(CC3)C2=O)c1F` [Example 56, 2-(1-acetyl-3-(4-(2′-(2,6-difluoro-3,5-dimethoxyphenyl)-3′-oxo-2′,3′-dihydro-1′H-spiro[cyclopropane-1,4′-[2,7]naphthyridine]-6′-yl)-1H-pyrazol-1-yl)azetidin-3-yl)acetonitrile], for which the FGFR1/FGFR3 is reported as over 5 and the FGFR4/FGFR3 is on record as over 1.
The corresponding values for `COc1cc(OC)c(F)c(N2Cc3cnc(-c4cn(C)nc4C)cc3N(C(C)C)C2=O)c1F` [Example 90, 3-(2,6-difluoro-3,5-dimethoxyphenyl)-7-(1,3-dimethyl-1H-pyrazol-4-yl)-1-isopropyl-3,4-dihydropyrido[4,3-d]pyrimidin-2(1H)-one] are over 5 and over 5.
For the compound `COc1cc(OC)c(F)c(N2Cc3cnc(-c4cn(C)nc4C)cc3N(Cc3cncnc3)C2=O)c1F` [Example 84, 3-(2,6-difluoro-3,5-dimethoxyphenyl)-7-(1,3-dimethyl-1H-pyrazol-4-yl)-1-(pyrimidin-5-ylmethyl)-3,4-dihydropyrido[4,3-d]pyrimidin-2(1H)-one], the FGFR1/FGFR3 is over 5 and the FGFR4/FGFR3 is over 5.
In the case of `CCN1C(=O)N(c2c(F)c(OC)cc(OC)c2F)Cc2cnc(-c3ccc(C4(C#N)CC4)cc3)cc21` [Example 183, 1-(4-(3-(2,6-difluoro-3,5-dimethoxyphenyl)-1-ethyl-2-oxo-1,2,3,4-tetrahydropyrido[4,3-d]pyrimidin-7-yl)phenyl)cyclopropanecarbonitrile], the FGFR1/FGFR3 is listed as over 3 and the FGFR4/FGFR3 was over 10.
The like results for `COc1cc(OC)c(F)c(N2Cc3cnc(-c4cn(C)nc4C)cc3N(c3cccc(-c4cnnn4C)c3)C2=O)c1F` [Example 89, 3-(2,6-difluoro-3,5-dimethoxyphenyl)-7-(1,3-dimethyl-1H-pyrazol-4-yl)-1-(3-(1-methyl-1H-1,2,3-triazol-5-yl)phenyl)-3,4-dihydropyrido[4,3-d]pyrimidin-2(1H)-one] were, in that order, over 5 and over 10.
The corresponding values for `COc1cc(OC)c(F)c(N2Cc3cnc(-c4cn(C)nc4C)cc3N(c3ccc(F)cc3)C2=O)c1F` [Example 40, 3-(2,6-difluoro-3,5-dimethoxyphenyl)-7-(1,3-dimethyl-1H-pyrazol-4-yl)-1-(4-fluorophenyl)-3,4-dihydropyrido[4,3-d]pyrimidin-2(1H)-one] are over 10 and over 10.
Regarding `COc1cc(OC)c(F)c(N2Cc3cnc(-c4cn(C)nc4C)cc3N(c3ccn(C)n3)C2=O)c1F` [Example 100, 3-(2,6-difluoro-3,5-dimethoxyphenyl)-7-(1,3-dimethyl-1H-pyrazol-4-yl)-1-(1-methyl-1H-pyrazol-3-yl)-3,4-dihydropyrido[4,3-d]pyrimidin-2(1H)-one], the FGFR1/FGFR3 is over 5 and the FGFR4/FGFR3 is given as over 5.
Turning to `CCN1C(=O)N(c2c(F)c(OC)cc(OC)c2F)Cc2cnc(-c3cn(CCN4CCOCC4)nc3C)cc21` [Example 49, 3-(2,6-difluoro-3,5-dimethoxyphenyl)-1-ethyl-7-(3-methyl-1-(2-morpholinoethyl)-1H-pyrazol-4-yl)-3,4-dihydropyrido[4,3-d]pyrimidin-2(1H)-one], the FGFR1/FGFR3 was over 5 and the FGFR4/FGFR3 is on record as over 1.
The like results for `COc1cc(OC)c(F)c(N2Cc3cnc(-c4cn(C)nc4C)cc3N(CCc3cnn(C)c3)C2=O)c1F` [Example 114, 3-(2,6-difluoro-3,5-dimethoxyphenyl)-7-(1,3-dimethyl-1H-pyrazol-4-yl)-1-(2-(1-methyl-1H-pyrazol-4-yl)ethyl)-3,4-dihydropyrido[4,3-d]pyrimidin-2(1H)-one] were, in that order, over 3 and over 5.
The like results for `COc1cc(N2C(=O)N(c3c(F)c(OC)cc(OC)c3F)Cc3cnc(-c4cn(C)nc4C)cc32)ccc1C#N` [Example 81, 4-(3-(2,6-difluoro-3,5-dimethoxyphenyl)-7-(1,3-dimethyl-1H-pyrazol-4-yl)-2-oxo-3,4-dihydropyrido[4,3-d]pyrimidin-1(2H)-yl)-2-methoxybenzonitrile] were, in that order, over 5 and over 10.
The like results for `COc1cc(OC)c(F)c(N2Cc3cnc(-c4cn(C)nc4C)cc3N(c3ccc(CC#N)cc3)C2=O)c1F` [Example 97, 2-(4-(3-(2,6-difluoro-3,5-dimethoxyphenyl)-7-(1,3-dimethyl-1H-pyrazol-4-yl)-2-oxo-3,4-dihydropyrido[4,3-d]pyrimidin-1(2H)-yl)phenyl)acetonitrile] were, in that order, over 5 and over 10.
As to `COc1cc(OC)c(F)c(N2Cc3cnc(-c4cn(C)nc4C)cc3N(c3cncc(C)n3)C2=O)c1F` [Example 87, 3-(2,6-difluoro-3,5-dimethoxyphenyl)-7-(1,3-dimethyl-1H-pyrazol-4-yl)-1-(6-methylpyrazin-2-yl)-3,4-dihydropyrido[4,3-d]pyrimidin-2(1H)-one], the FGFR1/FGFR3 is reported as over 5 and the FGFR4/FGFR3 was over 10.

The values above are taken from patent US10251892B2, “Bicyclic heterocycles as FGFR4 inhibitors” (Incyte Corporation, priority 2015, dated 2019).
